Source: BindingDB's records for patent US20240116948 (Chiesi Farmaceutici, 2024)

What follows are compounds tested against T1, TGF-beta receptor type-1 (Homo sapiens, UniProt P36897) (assay: In Vitro Assay).
T1 sequence (P36897 whole entry): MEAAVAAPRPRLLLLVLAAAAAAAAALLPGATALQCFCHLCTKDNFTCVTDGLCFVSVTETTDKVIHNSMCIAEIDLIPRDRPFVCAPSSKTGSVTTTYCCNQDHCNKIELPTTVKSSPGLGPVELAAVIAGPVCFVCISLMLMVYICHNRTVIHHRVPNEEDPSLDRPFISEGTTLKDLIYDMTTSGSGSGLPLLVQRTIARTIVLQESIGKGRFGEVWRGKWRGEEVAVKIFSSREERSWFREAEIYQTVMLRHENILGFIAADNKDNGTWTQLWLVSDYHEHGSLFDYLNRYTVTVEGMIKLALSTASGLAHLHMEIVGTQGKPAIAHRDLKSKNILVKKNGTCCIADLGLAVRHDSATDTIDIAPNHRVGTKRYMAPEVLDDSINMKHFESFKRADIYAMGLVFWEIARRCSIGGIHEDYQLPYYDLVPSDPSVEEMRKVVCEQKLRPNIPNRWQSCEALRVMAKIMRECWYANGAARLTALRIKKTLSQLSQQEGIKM
Procedure: The enzymatic activity of compounds of the present invention was monitored measuring the formation of ADP using the ADP-GLO Kinases assay. Following the incubation of the purified enzyme, a substrate and ATP, the produced ADP was converted into ATP, which in turn was converted into light by Ultra-Glo Luciferase. The luminescent signal positively correlated with ADP amount and kinase activity. Briefly, the kinase reaction was performed by incubating 2.6 nM of the purified, commercially available human ALK5 (recombinant TGF 31 N-term GST-tagged, 80-end), a final concentration of TGFβ1 peptide 94.5 μM (Promega, T36-58) and ultra-pure ATP (Promega V915B). The ATP concentration was set at the Km value (concentration of substrate which permits the enzyme to achieve half maximal velocity (Vmax)) of ALK5 (5 μM). All reactions/incubations were performed at 25° C. Compound and ALK5 kinase were mixed and incubated for 15 mins. Reactions were initiated by addition of ATP at a final concentration in the assay of […]. After an incubation of 150 min, the reaction was stopped, and ADP production detected with ADP-Glo kit according to manufacturer's indications. The assay was performed in 384-well format and was validated using a selection of reference compounds that was tested in 11 point concentration-response curve.

IC50 [nM] | SMILES
< 1 | O=C(CCN1CCCC1)Nc1cncc(-c2cc(-c3cc(Cl)ccc3F)nc3c2OCCN3)c1 [US20240116948, Example 12]
< 1 | CN(CCO)CCC(=O)Nc1cncc(-c2cc(-c3cc(Cl)ccc3F)nc3c2OCCN3)c1 [US20240116948, Example 44]
< 1 | CNCCCC(=O)Nc1cncc(-c2cc(-c3cc(Cl)ccc3F)nc3c2OCCN3)c1 [US20240116948, Example 31]
< 1 | CN(C)CCC(=O)Nc1cncc(-c2cc(-c3cc(Cl)ccc3F)nc3c2OCCN3)c1 [US20240116948, Example 8]
< 1 | CN(C)CCCOc1cncc(-c2cc(-c3cc(Cl)ccc3F)nc3c2OCCN3)c1 [US20240116948, Example 27]
< 1 | CN1CCC(Oc2cncc(-c3cc(-c4cc(Cl)ccc4F)nc4c3OCCN4)c2)CC1 [US20240116948, Example 41]
